pIC50: −log10 of the molar value.
Target: human DGKζ (Homo sapiens (Human), UniProt Q13574)
Experiment: Human DGKζ kinase activity inhibition assay (ADP-Glo)
Assay type: biochemical
Details: in vitro human DGKζ kinase activity inhibition assay; read-out: IC50
Summary of the method: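 Enzyme was C-terminally FLAG-tagged full-length recombinant human DGKζ from baculovirus-infected insect cells. Substrate preparation used octyl-β-D-glucopyranoside in 50 mM MOPS pH 7.4 with sonication; ADP generated was quantified by ADP-Glo luminescence as activity measure.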

Sequence of human DGKζ (Q13574 other isoform, or with tags, fused parts or gaps): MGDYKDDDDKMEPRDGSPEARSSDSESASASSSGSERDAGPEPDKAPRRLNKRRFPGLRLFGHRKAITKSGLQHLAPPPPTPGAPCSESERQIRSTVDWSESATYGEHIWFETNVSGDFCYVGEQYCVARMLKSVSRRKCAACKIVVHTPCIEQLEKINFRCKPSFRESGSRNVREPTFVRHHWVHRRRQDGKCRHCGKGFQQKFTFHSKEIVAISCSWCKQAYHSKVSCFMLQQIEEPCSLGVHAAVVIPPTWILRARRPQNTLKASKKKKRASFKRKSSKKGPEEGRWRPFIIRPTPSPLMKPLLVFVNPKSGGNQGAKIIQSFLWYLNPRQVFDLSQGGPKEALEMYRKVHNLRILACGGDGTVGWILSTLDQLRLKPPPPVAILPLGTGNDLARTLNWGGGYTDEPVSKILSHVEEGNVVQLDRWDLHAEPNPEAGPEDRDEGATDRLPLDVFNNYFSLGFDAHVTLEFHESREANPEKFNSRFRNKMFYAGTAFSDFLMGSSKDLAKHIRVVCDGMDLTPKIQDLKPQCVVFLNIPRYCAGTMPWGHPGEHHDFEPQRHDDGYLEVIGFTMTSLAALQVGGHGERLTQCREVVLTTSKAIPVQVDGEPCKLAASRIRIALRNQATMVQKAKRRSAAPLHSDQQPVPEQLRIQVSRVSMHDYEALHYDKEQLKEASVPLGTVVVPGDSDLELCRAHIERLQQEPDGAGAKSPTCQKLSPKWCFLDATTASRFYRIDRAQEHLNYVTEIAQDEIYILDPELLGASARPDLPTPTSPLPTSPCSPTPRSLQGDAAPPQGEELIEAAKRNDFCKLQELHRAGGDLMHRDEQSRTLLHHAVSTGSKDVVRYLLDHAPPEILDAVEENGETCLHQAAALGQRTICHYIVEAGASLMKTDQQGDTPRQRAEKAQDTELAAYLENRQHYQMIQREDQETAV

Row | pIC50 | SMILES
1 | 6.26 | Cc1cc(C(=O)c2sc(N(c3ccc(F)cc3)C(C)C(N)=O)nc2N)ccn1 (single isomer, unassigned) [Example 187.1, 2-(N-[4-amino-5-(2-methylpyridine-4-carbonyl)thiazol-2-yl]-4-fluoro-anilino)propanamide]
2 | 6.94 | Cc1cccc(N(c2nc(N)c(C(=O)c3ccccc3)s2)C(C)C(N)=O)c1 (single isomer, unassigned) [Example 76.1, 2-(N-(4-amino-5-benzoyl-thiazol-2-yl)-3-methyl-anilino)propanamide]
3 | 6.70 | CC(Oc1ccc(C(=O)c2sc(N(c3ccccc3)C(C)C(N)=O)nc2N)cc1)C(N)=O (single isomer, unassigned) [Example 45.1, 2-(N-[4-amino-5-[4-[2-amino-1-methyl-2-oxo-ethoxy]benzoyl]thiazol-2-yl]anilino)propanamide]
4 | 8.70 | CC(C(N)=O)N(c1ccc(F)c(F)c1)c1nc(N)c(C(=O)c2ccc(OCc3ccccc3)cc2)s1 (single isomer, unassigned) [Example 165.1, 2-(N-[4-amino-5-(4-benzyloxybenzoyl)thiazol-2-yl]-3,4-difluoro-anilino)propanamide]
5 | 4.77 | CC(C(N)=O)N(c1cccc(F)c1)c1nc(N)c(C(=O)c2ccccc2)s1 (single isomer, unassigned) [Example 74.1, 2-(N-(4-amino-5-benzoyl-thiazol-2-yl)-3-fluoro-anilino)propanamide]
6 | < 4.70 | CC(Oc1ccc(C(=O)c2sc(N(c3ccccc3)C(C)C(N)=O)nc2N)cc1)C(N)=O (single isomer, unassigned) [Example 45.4, 2-(N-[4-amino-5-[4-[2-amino-1-methyl-2-oxo-ethoxy]benzoyl]thiazol-2-yl]anilino)propanamide]
7 | 8.30 | CC(C(N)=O)N(c1ccc(Cl)c(F)c1)c1nc(N)c(C(=O)c2ccc(OC(F)F)nc2)s1 (single isomer, unassigned) [Example 164.1, 2-(N-[4-amino-5-[6-(difluoromethoxy)pyridine-3-carbonyl]thiazol-2-yl]-4-chloro-3-fluoro-anilino)propanamide]
8 | 5.29 | Cc1ccc(C(=O)c2sc(N(c3ccc(F)cc3)C(C)C(N)=O)nc2N)cc1 (single isomer, unassigned) [Example 63.1, 2-(N-[4-amino-5-(4-methylbenzoyl)thiazol-2-yl]-4-fluoro-anilino)propanamide]

Second part, the compound before the results:

Row | SMILES | pIC50
9 | COc1ccc(N(c2nc(N)c(C(=O)c3ccccc3)s2)C(C)C(N)=O)c(C)c1 (racemic) [Example 1, rac-2-(N-(4-amino-5-benzoyl-thiazol-2-yl)-4-methoxy-2-methyl-anilino)propanamide] | 6.02
10 | CC(C(N)=O)N(c1ccc(F)cc1)c1nc(N)c(C(=O)c2ccc(N3CCC(F)(F)CC3)nc2)s1 (racemic) [Example 284, rac-2-(N-[4-amino-5-[6-(4,4-difluoro-1-piperidyl)pyridine-3-carbonyl]thiazol-2-yl]-4-fluoro-anilino)propanamide] | 7.48
11 | CC(C(N)=O)N(c1ccc(F)cc1)c1nc(N)c(C(=O)c2ccc(OCC(=O)N3CCC(N(C)C)CC3)cc2)s1 (racemic) [Example 136, rac-2-(N-[4-amino-5-[4-[2-[4-(dimethylamino)-1-piperidyl]-2-oxo-ethoxy]benzoyl]thiazol-2-yl]-4-fluoro-anilino)propanamide] | 6.13
12 | CC(C(N)=O)N(c1ccc(N(C)C)c(Cl)c1)c1nc(N)c(C(=O)c2ccccc2)s1 (racemic) [Example 13, rac-2-[N-(4-amino-5-benzoyl-thiazol-2-yl)-3-chloro-4-(dimethylamino)anilino]propanamide] | 6.45
13 | CC(C(N)=O)N(c1ccc(F)cc1)c1nc(N)c(C(=O)c2ccc(OCC(=O)N(C)Cc3ccco3)cc2)s1 (racemic) [Example 135, rac-2-(N-[4-amino-5-[4-[2-[2-furylmethyl(methyl)amino]-2-oxo-ethoxy]benzoyl]thiazol-2-yl]-4-fluoro-anilino)propanamide] | 7.31
14 | CCOC(=O)COc1ccc(C(=O)c2sc(N(c3ccc(F)cc3)C(C)C(N)=O)nc2N)cc1 (racemic) [Example 81, rac-ethyl 2-[4-[4-amino-2-(4-fluoro-N-[2-amino-1-methyl-2-oxo-ethyl]anilino)thiazole-5-carbonyl]phenoxy]acetate] | 8.06
15 | CC(C(N)=O)N(c1ccc(F)cc1)c1nc(N)c(C(=O)c2ccc(N3CCC(C)(C)CC3)nc2)s1 (racemic) [Example 279, rac-2-(N-[4-amino-5-[6-(4,4-dimethyl-1-piperidyl)pyridine-3-carbonyl]thiazol-2-yl]-4-fluoro-anilino)propanamide] | 7.32
16 | CC(C(N)=O)N(c1ccc(F)cc1)c1nc(N)c(C(=O)c2ccc(N3CCC(C4COC4)CC3)nc2)s1 (racemic) [Example 277, rac-2-(N-[4-amino-5-[6-[4-(oxetan-3-yl)-1-piperidyl]pyridine-3-carbonyl]thiazol-2-yl]-4-fluoro-anilino)propanamide] | 6.31
17 | CC(=O)Nc1ccc(C(=O)c2sc(N(c3ccc(F)cc3)C(C)C(N)=O)nc2N)cc1 (racemic) [Example 185, rac-2-(N-[5-(4-acetamidobenzoyl)-4-amino-thiazol-2-yl]-4-fluoro-anilino)propanamide] | 6.52
18 | CC(C(N)=O)N(c1ccc(F)cc1)c1nc(N)c(C(=O)c2cccc(OC(F)F)c2)s1 (racemic) [Example 183, rac-2-(N-[4-amino-5-[3-(difluoromethoxy)benzoyl]thiazol-2-yl]-4-fluoro-anilino)propanamide] | 6.65
19 | CC(C(N)=O)N(c1ccc(F)cc1)c1nc(N)c(C(=O)c2ccc(OCC(=O)NCC(O)CO)cc2)s1 (racemic) [Example 147, 2-(N-[4-amino-5-[4-[2-((2RS),3-dihydroxypropylamino)-2-oxo-ethoxy]benzoyl]thiazol-2-yl]-4-fluoro-anilino)propanamide] | 6.54
20 | Cc1ccc(CNC(=O)COc2ccc(C(=O)c3sc(N(c4ccc(F)cc4)C(C)C(N)=O)nc3N)cc2)cc1 (racemic) [Example 126, rac-2-(N-[4-amino-5-[4-[2-oxo-2-(p-tolylmethylamino)ethoxy]benzoyl]thiazol-2-yl]-4-fluoro-anilino)propanamide] | 7.54
21 | CC(C(N)=O)N(c1ccc(F)cc1)c1nc(N)c(C(=O)c2ccc(OCC(=O)N3CCN(C)CC3)cc2)s1 (racemic) [Example 86, rac-2-(N-[4-amino-5-[4-[2-(4-methylpiperazin-1-yl)-2-oxo-ethoxy]benzoyl]thiazol-2-yl]-4-fluoro-anilino)propanamide] | 6.12
22 | CC(C(N)=O)N(c1ccc(OC(F)(F)F)c(F)c1)c1nc(N)c(C(=O)c2ccc(Cl)cc2)s1 (racemic) [Example 218, rac-2-[N-[4-amino-5-(4-chlorobenzoyl)thiazol-2-yl]-3-fluoro-4-(trifluoromethoxy)anilino]propanamide] | 7.19
23 | COc1cc(C(=O)c2sc(N(c3ccc(F)cc3)C(C)C(N)=O)nc2N)ccn1 (racemic) [Example 190, rac-2-(N-[4-amino-5-(2-methoxypyridine-4-carbonyl)thiazol-2-yl]-4-fluoro-anilino)propanamide] | 6.26
24 | CC(C(N)=O)N(c1ccc(F)cc1)c1nc(N)c(C(=O)c2ccc(NC(=O)OCc3ccccc3)cc2)s1 (racemic) [Example 169, rac-benzyl N-[4-[4-amino-2-(N-(2-amino-1-methyl-2-oxo-ethyl)-4-fluoro-anilino)thiazole-5-carbonyl]phenyl]carbamate] | 8.52
25 | CC(C(N)=O)N(c1ccc(F)cc1)c1nc(N)c(C(=O)c2ccc(Cn3cccn3)cc2)s1 (racemic) [Example 179, rac-2-(N-[4-amino-5-[4-(pyrazol-1-ylmethyl)benzoyl]thiazol-2-yl]-4-fluoro-anilino)propanamide] | 7.24
26 | CC(Oc1ccc(C(=O)c2sc(N(c3ccc(F)cc3)C(C)C(N)=O)nc2N)cc1)C(N)=O (racemic) [Example 69, 2-(N-[4-amino-5-[4-(2-amino-1-methyl-2-oxo-ethoxy)benzoyl]thiazol-2-yl]-4-fluoro-anilino)propanamide] | 7.19
27 | CC(C(N)=O)N(c1ccc(Cl)cc1)c1nc(N)c(C(=O)c2ccncc2)s1 (racemic) [Example 57, rac-2-(N-[4-amino-5-(pyridine-4-carbonyl)thiazol-2-yl]-4-chloro-anilino)propanamide] | 6.81
28 | CC1CCCN(C(=O)COc2ccc(C(=O)c3sc(N(c4ccc(F)cc4)C(C)C(N)=O)nc3N)cc2)C1 (racemic) [Example 128, 2-(N-[4-amino-5-[4-[2-(3-methyl-1-piperidyl)-2-oxo-ethoxy]benzoyl]thiazol-2-yl]-4-fluoro-anilino)propanamide] | 7.14
29 | CC(C(N)=O)N(c1ccc(F)cc1)c1nc(N)c(C(=O)c2ccc(OCC(=O)N3CCCCCC3)cc2)s1 (racemic) [Example 123, rac-2-(N-[4-amino-5-[4-[2-(azepan-1-yl)-2-oxo-ethoxy]benzoyl]thiazol-2-yl]-4-fluoro-anilino)propanamide] | 7.00
30 | CC(C(N)=O)N(c1ccc(F)cc1)c1nc(N)c(C(=O)c2ccc(OC(F)F)cc2)s1 (racemic) [Example 44, rac-2-(N-[4-amino-5-[4-(difluoromethoxy)benzoyl]thiazol-2-yl]-4-fluoro-anilino)propanamide] | 8.05
31 | CC(C(N)=O)N(c1ccc(F)cc1)c1nc(N)c(C(=O)c2ccc(OCC(=O)NCc3ccccc3Cl)cc2)s1 (racemic) [Example 120, rac-2-(N-[4-amino-5-[4-[2-[(2-chlorophenyl)methylamino]-2-oxo-ethoxy]benzoyl]thiazol-2-yl]-4-fluoro-anilino)propanamide] | 7.78
32 | CC(C(N)=O)N(c1ccc(F)cc1)c1nc(N)c(C(=O)c2ccc(OCC(=O)Nc3cccc(C(N)=O)c3)cc2)s1 (racemic) [Example 107, rac-3-[[2-[4-[4-amino-2-(N-[2-amino-1-methyl-2-oxo-ethyl]-4-fluoro-anilino)thiazole-5-carbonyl]phenoxy]acetyl]amino]benzamide] | 7.11

Reference: patent US11964953B2, “Substituted aminothiazoles as DGKzeta inhibitors for immune activation” (Bayer Aktiengesellschaft, priority 2020, dated 2024)
